Values after ≈ are worked out from the molar mass of the structure shown.
Legend:
Clostridioides difficile = experiment: Antibacterial activity against Clostridioides difficile ATCC 43255 assessed as inhibition of bacterial growth measured after 24 hrs by CLSI based broth dilution method; assay type: functional
Staphylococcus aureus = experiment: Antibacterial activity against Staphylococcus aureus ATCC 4330 assessed as inhibition of bacterial growth measured after 16 to 24 hrs by CLSI based broth dilution method; assay type: functional; conditions: time 16-24 hrs
[1] = Aqueous kinetic solubility of the compound at pH 7.4 incubated for 2 hrs by UPLC-MS analysis; assay type: physicochemical; conditions: read-out: Kinetic_solubility

SMILES | MIC (Clostridioides difficile) [µg/mL] | MIC (Staphylococcus aureus) [µg/mL] | solubility kinetic at 2 h [1] [µg/mL]
C/C=C1\NC(=O)[C@H]([C@@H](C)O)NC(=O)c2csc(n2)-c2ccc(-c3nc(-c4nc(C(=O)NC5(C(=O)NCCn6ccnc6[N+](=O)[O-])CC5)cs4)cs3)nc2-c2csc(n2)[C@H]([C@@H](C)O)NC(=O)c2csc(n2)[C@H](C(C)C)NC(=O)c2csc1n2 | 0.5 (≈ 0.408 µM) | 1 (≈ 0.816 µM) | –
C/C=C(\NC(=O)c1csc(-c2csc(-c3ccc4c(n3)-c3csc(n3)[C@H]([C@@H](C)O)NC(=O)c3csc(n3)[C@H](C(C)C)NC(=O)c3csc(n3)/C(=C/C)NC(=O)[C@H]([C@@H](C)O)NC(=O)c3csc-4n3)n2)n1)C(=O)NCC(C)=O | 1 (≈ 0.875 µM) | 0.5 (≈ 0.438 µM) | 0.07 (≈ 0.0613 µM)
C/C=C1\NC(=O)[C@H]([C@@H](C)O)NC(=O)c2csc(n2)-c2ccc(-c3nc(-c4nc(C(=O)NC5(C(=O)NCCCN6CCN(C(C)C)CC6)CC5)cs4)cs3)nc2-c2csc(n2)[C@H]([C@@H](C)O)NC(=O)c2csc(n2)[C@H](C(C)C)NC(=O)c2csc1n2.Cl | – | – | 2.8
C/C=C(\NC(=O)c1csc(-c2csc(-c3ccc4c(n3)-c3csc(n3)[C@H]([C@@H](C)O)NC(=O)c3csc(n3)[C@H](C(C)C)NC(=O)c3csc(n3)/C(=C/C)NC(=O)[C@H]([C@@H](C)O)NC(=O)c3csc-4n3)n2)n1)C(=O)NCCn1ccnc1[N+](=O)[O-] | 0.5 (≈ 0.408 µM) | 1 (≈ 0.816 µM) | –
C/C=C(\NC(=O)c1csc(-c2csc(-c3ccc4c(n3)-c3csc(n3)[C@H]([C@@H](C)O)NC(=O)c3csc(n3)[C@H](C(C)C)NC(=O)c3csc(n3)/C(=C/C)NC(=O)[C@H]([C@@H](C)O)NC(=O)c3csc-4n3)n2)n1)C(=O)NCCCN1CCOCC1 | 0.5 (≈ 0.412 µM) | 1 (≈ 0.824 µM) | –
C/C=C(\NC(=O)c1csc(-c2csc(-c3ccc4c(n3)-c3csc(n3)[C@H]([C@@H](C)O)NC(=O)c3csc(n3)[C@H](C(C)C)NC(=O)c3csc(n3)/C(=C/C)NC(=O)[C@H]([C@@H](C)O)NC(=O)c3csc-4n3)n2)n1)C(=O)NCCN1CCOCC1 | 1 (≈ 0.834 µM) | 1 (≈ 0.834 µM) | –
C/C=C(\NC(=O)c1csc(-c2csc(-c3ccc4c(n3)-c3csc(n3)[C@H]([C@@H](C)O)NC(=O)c3csc(n3)[C@H](C(C)C)NC(=O)c3csc(n3)/C(=C/C)NC(=O)[C@H]([C@@H](C)O)NC(=O)c3csc-4n3)n2)n1)C(=O)NCCN1CCN(C(C)C)CC1.Cl | – | – | 3
C/C=C1\NC(=O)[C@H]([C@@H](C)O)NC(=O)c2csc(n2)-c2ccc(-c3nc(-c4nc(C(=O)NC5(C(=O)NCCN6C(=O)CNC6=O)CC5)cs4)cs3)nc2-c2csc(n2)[C@H]([C@@H](C)O)NC(=O)c2csc(n2)[C@H](C(C)C)NC(=O)c2csc1n2 | > 16 | 1 (≈ 0.825 µM) | –
C/C=C1\NC(=O)[C@H]([C@@H](C)O)NC(=O)c2csc(n2)-c2ccc(-c3nc(-c4nc(C(=O)NC5(C(=O)NCCn6cc([N+](=O)[O-])nc6C)CC5)cs4)cs3)nc2-c2csc(n2)[C@H]([C@@H](C)O)NC(=O)c2csc(n2)[C@H](C(C)C)NC(=O)c2csc1n2 | 0.5 (≈ 0.403 µM) | 1 (≈ 0.807 µM) | –

From ChEMBL document CHEMBL5370604, “Identification of Micrococcin P2-Derivatives as Antibiotic Candidates against Two Gram-Positive Pathogens” (J Med Chem, 2023)
